According to ChEMBL document CHEMBL4229526, “Quinoxaline derivatives as potential antitrypanosomal and antileishmanial agents” (Bioorg Med Chem, 2018):

Experiments:
[1] = tested on: Leishmania donovani; test: Antileishmanial activity against Leishmania donovani MHOM/SD/62/1S-CL2D LdBOB axenic amastigotes harboring eGFP after 72 hrs by resazurin dye based fluorescence assay; format: functional, organism-based
[2] = tested on: Leishmania donovani; test: Antileishmanial activity against Leishmania donovani MHOM/SD/62/1S-CL2D LdBOB amastigotes harboring eGFP infected in human THP1 cells assessed as reduction in number of amastigotes per cell after 96 hrs by DAPI staining based microscopic analysis; format: functional, organism-based; conditions: THP-1, 96 h
[3] = tested on: Trypanosoma cruzi; test: Antitrypanosomal activity against Trypanosoma cruzi Tulahuen amastigote forms infected in rat H9c2 cells assessed as reduction in amastigote number per cell after 72 hrs by DRAQ5 DNA dye based confocal microscopic analysis; format: functional, organism-based; conditions: H9c2, 72 h
[4] = tested on: Leishmania donovani; test: Antileishmanial activity against Leishmania donovani MHOM/SD/62/1S-CL2D LdBOB amastigotes harboring eGFP infected in human THP1 cells assessed as reduction in infected cells after 96 hrs by DAPI staining based microscopic analysis; format: functional, organism-based; conditions: THP-1, 96 h
[5] = tested on: THP-1; test: Cytotoxicity against human THP1 cells infected with Leishmania donovani MHOM/SD/62/1S-CL2D LdBOB amastigotes harboring eGFP assessed as reduction in cell number after 96 hrs by DAPI staining based microscopic analysis; conditions: THP-1, 96 h
[6] = Cytotoxicity against human HepG2 cells after 48 hrs by CellTiter-Glo cell viability assay; format: cell-based
[7] = tested on: Trypanosoma brucei; test: Antitrypanosomal activity against Trypanosoma brucei Lister 427 bloodstream forms after 48 hrs by resazurin dye based fluorescence assay; format: functional, organism-based; conditions: Lister 427, 48 h
[8] = tested on: H9c2; test: Cytotoxicity against rat H9c2 cells infected with Trypanosoma cruzi Tulahuen amastigote forms assessed as reduction in cell number after 72 hrs by DRAQ5 DNA dye based confocal microscopic analysis; conditions: H9c2, 72 h
[9] = tested on: Trypanosoma cruzi; test: Antitrypanosomal activity against Trypanosoma cruzi Tulahuen trypomastigote forms infected in monkey LLC-MK2 cells after 24 hrs by CellTiter-Glo luminescent cell viability assay; format: functional, organism-based; conditions: LLC-MK2, 24 h
[10] = tested on: Trypanosoma cruzi; test: Antitrypanosomal activity against Trypanosoma cruzi Tulahuen amastigote forms infected in rat H9c2 cells assessed as reduction in infected cells after 72 hrs by DRAQ5 DNA dye based confocal microscopic analysis; format: functional, organism-based; conditions: H9c2, 72 h

SMILES | IC50 [1] [µM] | IC50 [2] [µM] | IC50 [3] [µM] | IC50 [4] [µM] | IC50 [5] [µM] | CC50 at 48 h [6] [µM] | IC50 [7] [µM] | IC50 [8] [µM] | IC50 [9] [µM] | IC50 [10] [µM]
COc1ccc2nc(NC3CCCCC3)c([S+](C)[O-])nc2c1 (stereo unspecified) | 7.94 | 6.31 | 10 | 7.94 | 10 | 12.6 | 19.9 | 5.01 | 7.74 | 12.6
C[S+]([O-])c1nc2ccc(Cl)cc2nc1NC1CCCCC1 (stereo unspecified) | 10 | 31.6 | 3.98 | 31.6 | 31.6 | 15.8 | 6.31 | 3.16 | 0.74 | 5.01
COc1ccc2nc(-c3ccc(Cl)cc3)c(-c3ccc(S(C)(=O)=O)cc3)nc2c1 | 2.51 | 12.6 | 7.94 | 10 | 7.94 | 5.01 | 19.9 | 5.01 | 1.14 | 10
COc1ccc2nc(-c3ccc(-c4ccccc4)cc3)c(-c3ccc(S(C)(=O)=O)cc3)nc2c1 | > 50 | > 50 | 31.6 | > 50 | 39.8 | > 100 | 31.6 | 25.1 | 42.4 | 19.9
COc1ccc2nc(-c3ccc(S(C)(=O)=O)cc3)c(-c3ccc(Cl)cc3)nc2c1 | 7.94 | 19.9 | 19.9 | 19.9 | 12.6 | 25.1 | 10 | 10 | 4.21 | 25.1
CS(=O)(=O)c1ccc(-c2nc3ccccc3nc2-c2ccc(Cl)cc2)cc1 | 3.16 | 10 | 10 | 10 | 10 | 10 | 10 | 5.01 | 0.7 | 12.6
C[C@@H]1[C@H](O)[C@@H](C)/C=C/C=C/C=C/C=C/C=C/C=C/C=C/[C@H](O[C@@H]2O[C@H](C)[C@@H](O)[C@H](N)[C@@H]2O)C[C@@H]2O[C@](O)(C[C@@H](O)C[C@@H](O)[C@H](O)CC[C@@H](O)C[C@@H](O)CC(=O)O[C@H]1C)C[C@H](O)[C@H]2C(=O)O [AMPHOTERICIN B] | 1.58 | 0.63 | – | 0.63 | 10 | – | – | – | – | –
O=C(Cn1ccnc1[N+](=O)[O-])NCc1ccccc1 [BENZNIDAZOLE] | – | – | 1.26 | – | – | – | 3.24 | > 50 | 23 | 5.3
NCCC[C@](N)(C(=O)O)C(F)F [EFLORNITHINE, (S)-] | – | – | – | – | – | – | 32.4 | – | – | –
CCCCCCCCCCCCCCCCOP(=O)([O-])OCC[N+](C)(C)C [MILTEFOSINE] | 7.94 | 3.98 | – | 5.01 | 15.8 | – | – | – | – | –
CC1CS(=O)(=O)CCN1/N=C/c1ccc([N+](=O)[O-])o1 (stereo unspecified) [NIFURTIMOX] | – | – | 0.4 | – | – | – | 7.58 | > 50 | 2.97 | 5.9
N=C(N)c1ccc(OCCCCCOc2ccc(C(=N)N)cc2)cc1 [PENTAMIDINE] | – | – | – | – | – | – | 0.01 | – | – | –
Cc1ccc(C(=O)Nc2ccc(S(=O)(=O)O)c3cc(S(=O)(=O)O)cc(S(=O)(=O)O)c23)cc1NC(=O)c1cccc(NC(=O)Nc2cccc(C(=O)Nc3cc(C(=O)Nc4ccc(S(=O)(=O)O)c5cc(S(=O)(=O)O)cc(S(=O)(=O)O)c45)ccc3C)c2)c1 [SURAMIN] | – | – | – | – | – | – | 0.18 | – | – | –
